Reference: article PMC2764262 (Experimental cell research, 2008)

Legend:
[1] = tested on: human brain microvascular endothelial cells (HBMEC); test: Pseudo-capillary sprouting, microcarrier culture in fibrin gel; type: cell-based; conditions: HBMEC on microcarriers in fibrin gel, FGF-2 20 ng/ml, 5 µM peptide, day 2
FGFR-1 = FGFR-1 phosphorylation; type: cell-based, human; conditions: HBMEC, 5 µM peptide, FGF-2 20 ng/ml 15 min; IP anti-FGFR-1, anti p-Tyr
[2] = Circular dichroism spectroscopy, secondary structure; type: physicochemical; conditions: 1 mg/ml in Hanks balanced salt solution, 37 °C, up to day 6 (WT: by day 3)
Akt = Akt phosphorylation by Western blotting; type: cell-based, human; conditions: HBMEC, 5 µM peptide, 30 min, FGF-2 20 ng/ml; Western blot
[3] = tested on: human brain microvascular endothelial cells (HBMEC); test: BrdU labeling assay, cell proliferation; type: cell-based; conditions: 25 µM peptide, 48 h, 0.1% FBS, no FGF-2
FGF-2 = FGF-2 production by Western blotting; type: cell-based, human; conditions: HBMEC, 5 µM peptide, 18 h; Western blot
[4] = tested on: human brain microvascular endothelial cells (HBMEC); test: BrdU labeling assay, proliferation induced by FGF-2; type: cell-based; conditions: FGF-2 20 ng/ml, 48 h
caspase-3 = test: Cleaved caspase-3 expression by Western blotting; type: cell-based, human; conditions: HBMEC, 5 µM peptide, 18 h, FGF-2 20 ng/ml
[5] = Peptide solubility on aging; conditions: 1 mg/ml in Hanks' Balanced Salt Solution, 37 °C, up to 6 days; O.D. 280 nm after centrifugation

## E22Q: Synthetic Aβ (1–40) peptide bearing the E22Q (Dutch) mutation
[1]
  reduction of pseudo-capillary sprouting area: nearly suppressed
FGFR-1
  FGFR-1 phosphorylation in response to FGF-2: reduced phosphorylation to levels observed in quiescent cells
[2]
  secondary structure by CD on further incubation: the β-sheet content increased
Akt
  FGF-2-induced Akt phosphorylation: marked reduction
[3]
  inhibition of cell proliferation (BrdU incorporation): total inhibition
FGF-2
  FGF-2 expression: decreased expression
[4]; 1 µM peptide
  inhibition of FGF-2-induced BrdU incorporation: 60%
[4]; concentrations higher than 1 µM (up to 25 µM)
  inhibition of FGF-2-induced BrdU incorporation: > 90%
caspase-3
  caspase-3 activation with concomitant FGF-2 administration: failed to prevent caspase-3 activation
[5]
  solubility relative to the other peptides: lower values than those of WT
